Tests used:
Type in all cases: in vivo
[1] = system: winter barley (Hordeum vulgare); assay: Test B postemergence plant response; details: for Barley plant response rating: 8 g ai/ha, postemergence, 0-100 scale; for Plant response rating, Barley: Postemergence, scale 0 to 100, 0 no effect, 100 complete control
Method in brief: (§1)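 Following treatment of plants 2 to 18 cm high after emergence, pots were held under glass for 13 to 15 days; efficacy was then graded visually, 100 denoting complete control and a dash no test result.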

[2] = system: canarygrass (Phalaris minor); assay: Test B postemergence plant response; details: for Canarygrass plant response rating: 8 g ai/ha, postemergence, 0-100 scale; for Plant response rating, Canarygrass: Postemergence
Method in brief: as §1

[3] = system: windgrass (Apera spica-venti); assay: Test B postemergence plant response; details: for Windgrass plant response rating: 8 g ai/ha, postemergence, 0-100 scale; for Plant response rating, Windgrass: Postemergence
Method in brief: as §1

[4] = system: winter barley (Hordeum vulgare); assay: Test C pre-/postemergence plant response; details: Preemergence
Method in brief: (§2)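 Plant response was judged by eye against untreated controls following 15 to 25 days in a controlled growth environment, using 0 for no effect and 100 for complete control. Treatments were made both preemergence and postemergence, the latter on plants of 1- to 4-leaf stage.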

[5] = system: blackgrass (Alopecurus myosuroides); assay: Test C pre-/postemergence plant response; details: Preemergence
Method in brief: as §2

[6] = system: pigweed (Amaranthus retroflexus); assay: Test C pre-/postemergence plant response; details: Preemergence
Method in brief: as §2

[7] = system: canarygrass (Phalaris minor); assay: Test C pre-/postemergence plant response; details: Preemergence
Method in brief: as §2

[8] = system: wild mustard (Sinapis arvensis); assay: Test C pre-/postemergence plant response; details: Preemergence
Method in brief: as §2

[9] = system: spring wheat (Triticum aestivum); assay: Test C pre-/postemergence plant response; details: Preemergence
Method in brief: as §2

[10] = system: downy bromegrass (Bromus tectorum); assay: Test C pre-/postemergence plant response; details: Preemergence
Method in brief: as §2

[11] = system: spring barley (Hordeum vulgare); assay: Test C pre-/postemergence plant response; details: Preemergence
Method in brief: as §2

[12] = system: Italian ryegrass (Lolium multiflorum); assay: Test C pre-/postemergence plant response; details: Preemergence
Method in brief: as §2

[13] = system: green foxtail (Setaria viridis); assay: Test C pre-/postemergence plant response; details: Preemergence
Method in brief: as §2

wild oat (Avena fatua) = assay: Test C pre-/postemergence plant response; details: Preemergence
Method in brief: as §2

[14] = system: winter wheat (Triticum aestivum); assay: Test C pre-/postemergence plant response; details: Preemergence
Method in brief: as §2

[15] = system: windgrass (Apera spica-venti); assay: Test C pre-/postemergence plant response; details: Preemergence
Method in brief: as §2

[16] = system: annual bluegrass (Poa annua); assay: Test C pre-/postemergence plant response; details: Preemergence
Method in brief: as §2

[17] = 31 g ai/ha, scale 0 to 100, 0 no effect, 100 complete control
[18] = 62 g ai/ha, scale 0 to 100, 0 no effect, 100 complete control
[19] = 8 g ai/ha, scale 0 to 100 (0 no effect, 100 complete control)
[20] = 16 g ai/ha, scale 0 to 100 (0 no effect, 100 complete control)
[21] = 31 g ai/ha, scale 0 to 100 (0 no effect, 100 complete control)

With Cn1ncc(O)c(-c2nn(-c3ccc(Cl)cc3)cc2Cl)c1=O [Compound 28] the “Barley plant response rating” value [1] was 0, the “Plant response rating, Barley” value ([1]; 16 g ai/ha) was 0 and the “Plant response rating, Barley” value ([1]; 31 g ai/ha) was 50. The “Canarygrass plant response rating” value [2] was 0, the “Plant response rating, Canarygrass” value ([2]; 16 g ai/ha, scale 0 to 100) was 0 and the “Plant response rating, Canarygrass” value [2, 17] was 50. For the same compound, the “Windgrass plant response rating” value [3] was 0, the “Plant response rating, Windgrass” value ([3]; 16 g ai/ha, scale 0 to 100) was 35 and the “Plant response rating, Windgrass” value [3, 18] was 85. The “Plant response rating, Barley, Winter” value [4, 19] was 0, the “Plant response rating, Barley, Winter” value [4, 20] was 0 and the “Plant response rating, Barley, Winter” value [4, 21] was 0. For the same compound, the “Plant response rating, Barley, Winter” value [4, 18] was 40, the “Plant response rating, Blackgrass” value [5, 19] was 0 and the “Plant response rating, Blackgrass” value [5, 20] was 5. The “Plant response rating, Blackgrass” value [5, 21] was 15, the “Plant response rating, Blackgrass” value [5, 18] was 85 and the “Plant response rating, Pigweed” value [6, 19] was 0. The “Plant response rating, Pigweed” value [6, 20] was 0, the “Plant response rating, Pigweed” value [6, 21] was 0 and the “Plant response rating, Pigweed” value [6, 18] was 0. The “Plant response rating, Canarygrass” value [7, 19] was 0, the “Plant response rating, Canarygrass” value [7, 20] was 0 and the “Plant response rating, Canarygrass” value [7, 21] was 10. The “Plant response rating, Canarygrass” value [7, 18] was 90, the “Plant response rating, Mustard, Wild” value [8, 19] was 0 and the “Plant response rating, Mustard, Wild” value [8, 20] was 0. The “Plant response rating, Mustard, Wild” value [8, 21] was 0, the “Plant response rating, Mustard, Wild” value [8, 18] was 0 and the “Plant response rating, Wheat, Spring” value [9, 19] was 0. For the same compound, the “Plant response rating, Wheat, Spring” value [9, 20] was 0, the “Plant response rating, Wheat, Spring” value [9, 21] was 35 and the “Plant response rating, Wheat, Spring” value [9, 18] was 50. The “Plant response rating, Bromegrass, Downy” value [10, 19] was 0, the “Plant response rating, Bromegrass, Downy” value [10, 20] was 0 and the “Plant response rating, Bromegrass, Downy” value [10, 21] was 20. For the same compound, the “Plant response rating, Bromegrass, Downy” value [10, 18] was 75, the “Plant response rating, Barley, Spring” value [11, 19] was 0 and the “Plant response rating, Barley, Spring” value [11, 20] was 15. The “Plant response rating, Barley, Spring” value [11, 21] was 15, the “Plant response rating, Barley, Spring” value [11, 18] was 25 and the “Plant response rating, Ryegrass, Italian” value [12, 19] was 0. For the same compound, the “Plant response rating, Ryegrass, Italian” value [12, 20] was 15, the “Plant response rating, Ryegrass, Italian” value [12, 21] was 90 and the “Plant response rating, Ryegrass, Italian” value [12, 18] was 95. For the same compound, the “Plant response rating, Foxtail, Green” value [13, 19] was 0, the “Plant response rating, Foxtail, Green” value [13, 20] was 20 and the “Plant response rating, Foxtail, Green” value [13, 21] was 100. For the same compound, the “Plant response rating, Foxtail, Green” value [13, 18] was 100, the “Plant response rating, Oat, Wild” value (wild oat (Avena fatua); [19]) was 0 and the “Plant response rating, Oat, Wild” value (wild oat (Avena fatua); [20]) was 0. For the same compound, the “Plant response rating, Oat, Wild” value (wild oat (Avena fatua); [21]) was 20, the “Plant response rating, Oat, Wild” value (wild oat (Avena fatua); [18]) was 75 and the “Plant response rating, Wheat, Winter” value [14, 19] was 0. The “Plant response rating, Wheat, Winter” value [14, 20] was 10, the “Plant response rating, Wheat, Winter” value [14, 21] was 30 and the “Plant response rating, Wheat, Winter” value [14, 18] was 60. The “Plant response rating, Windgrass” value [15, 19] was 20, the “Plant response rating, Windgrass” value [15, 20] was 30 and the “Plant response rating, Windgrass” value [15, 21] was 75. The “Plant response rating, Windgrass” value [15, 18] was 85, the “Plant response rating, Bluegrass” value [16, 19] was 0 and the “Plant response rating, Bluegrass” value [16, 20] was 0. The “Plant response rating, Bluegrass” value [16, 18] was 50.
Cc1cc(-c2ccc(Cl)cc2)nn1-c1c(OC(=O)C(C)C)cnn(C)c1=O [Compound 34] was tested, and the “Barley plant response rating” value [1] was 0, the “Plant response rating, Barley” value ([1]; 16 g ai/ha) was 0 and the “Plant response rating, Barley” value ([1]; 31 g ai/ha) was 0. For the same compound, the “Plant response rating, Barley” value ([1]; 62 g ai/ha) was 15, the “Canarygrass plant response rating” value [2] was 10 and the “Plant response rating, Canarygrass” value ([2]; 16 g ai/ha, scale 0 to 100) was 10. The “Plant response rating, Canarygrass” value [2, 17] was 20, the “Plant response rating, Canarygrass” value [2, 18] was 20 and the “Windgrass plant response rating” value [3] was 0. The “Plant response rating, Windgrass” value ([3]; 16 g ai/ha, scale 0 to 100) was 10, the “Plant response rating, Windgrass” value [3, 18] was 80 and the “Plant response rating, Barley, Winter” value [4, 19] was 0. For the same compound, the “Plant response rating, Barley, Winter” value [4, 20] was 0, the “Plant response rating, Barley, Winter” value [4, 21] was 10 and the “Plant response rating, Barley, Winter” value [4, 18] was 35. For the same compound, the “Plant response rating, Blackgrass” value [5, 19] was 0, the “Plant response rating, Blackgrass” value [5, 20] was 20 and the “Plant response rating, Blackgrass” value [5, 21] was 75. The “Plant response rating, Blackgrass” value [5, 18] was 85, the “Plant response rating, Pigweed” value [6, 19] was 0 and the “Plant response rating, Pigweed” value [6, 20] was 0. For the same compound, the “Plant response rating, Pigweed” value [6, 21] was 0, the “Plant response rating, Pigweed” value [6, 18] was 0 and the “Plant response rating, Canarygrass” value [7, 19] was 0. The “Plant response rating, Canarygrass” value [7, 20] was 20, the “Plant response rating, Canarygrass” value [7, 21] was 65 and the “Plant response rating, Canarygrass” value [7, 18] was 100. For the same compound, the “Plant response rating, Mustard, Wild” value [8, 20] was 0, the “Plant response rating, Mustard, Wild” value [8, 21] was 0 and the “Plant response rating, Mustard, Wild” value [8, 18] was 0. The “Plant response rating, Wheat, Spring” value [9, 19] was 0, the “Plant response rating, Wheat, Spring” value [9, 20] was 0 and the “Plant response rating, Wheat, Spring” value [9, 21] was 50. For the same compound, the “Plant response rating, Wheat, Spring” value [9, 18] was 90, the “Plant response rating, Bromegrass, Downy” value [10, 19] was 0 and the “Plant response rating, Bromegrass, Downy” value [10, 20] was 0. For the same compound, the “Plant response rating, Bromegrass, Downy” value [10, 21] was 10, the “Plant response rating, Bromegrass, Downy” value [10, 18] was 60 and the “Plant response rating, Barley, Spring” value [11, 19] was 0. The “Plant response rating, Barley, Spring” value [11, 20] was 0, the “Plant response rating, Barley, Spring” value [11, 21] was 0 and the “Plant response rating, Barley, Spring” value [11, 18] was 70. The “Plant response rating, Ryegrass, Italian” value [12, 19] was 30, the “Plant response rating, Ryegrass, Italian” value [12, 20] was 100 and the “Plant response rating, Ryegrass, Italian” value [12, 21] was 100. The “Plant response rating, Ryegrass, Italian” value [12, 18] was 100, the “Plant response rating, Foxtail, Green” value [13, 19] was 30 and the “Plant response rating, Foxtail, Green” value [13, 20] was 100. For the same compound, the “Plant response rating, Foxtail, Green” value [13, 21] was 100, the “Plant response rating, Foxtail, Green” value [13, 18] was 100 and the “Plant response rating, Oat, Wild” value (wild oat (Avena fatua); [19]) was 0. The “Plant response rating, Oat, Wild” value (wild oat (Avena fatua); [20]) was 0, the “Plant response rating, Oat, Wild” value (wild oat (Avena fatua); [21]) was 70 and the “Plant response rating, Oat, Wild” value (wild oat (Avena fatua); [18]) was 75. The “Plant response rating, Wheat, Winter” value [14, 19] was 0, the “Plant response rating, Wheat, Winter” value [14, 20] was 10 and the “Plant response rating, Wheat, Winter” value [14, 21] was 25. For the same compound, the “Plant response rating, Wheat, Winter” value [14, 18] was 60, the “Plant response rating, Windgrass” value [15, 19] was 0 and the “Plant response rating, Windgrass” value [15, 20] was 0. The “Plant response rating, Windgrass” value [15, 21] was 20, the “Plant response rating, Windgrass” value [15, 18] was 60 and the “Plant response rating, Bluegrass” value [16, 19] was 0. For the same compound, the “Plant response rating, Bluegrass” value [16, 20] was 0, the “Plant response rating, Bluegrass” value [16, 21] was 0 and the “Plant response rating, Bluegrass” value [16, 18] was 35.

— patent publication US20100267561A1, “HERBICIDAL PYRIDAZINONE DERIVATIVES” (priority 2007, published 2010)
